For this assay, the system named is HIV-1 (H9IIIB or NL4-3 virus) replication in MT4-GFP cells. Kind of assay: microbe, parasite or virus in culture. In kind it is cell-based. To be noted: inhibition of reproductive ratio R0, 48-72 h post-infection.
[1] abbreviates: MT4-GFP cells infected with HIV-1, 100% normal human serum, read-out: ViKinG IP (nM) with 100% NHS.
[2] abbreviates: MT4-GFP cells infected with HIV-1, serum free conditions (0% NHS), read-out: ViKinG IP (nM) with 0% NHS.
Where [3] appears, read: Human immunodeficiency virus 1, NL43, MT4-GFP cells infected with HIV-1, 100% normal human serum, read-out: ViKinG IP (nM) with 100% NHS.
[4] abbreviates: Human immunodeficiency virus 1, NL43, MT4-GFP cells infected with HIV-1, serum free conditions (0% NHS), read-out: ViKinG IP (nM) with 0% NHS.
The mark [5] stands for this setting: Human immunodeficiency virus 1, NL43, MT4-GFP cells infected with HIV-1, 10% normal human serum, read-out: ViKinG IP (nM) with 10% NHS.

Data on eleven molecules can be found in US9707234B2, “Spirocyclic hetercycle compounds useful as HIV integrase inhibitors” (MERCK SHARP & DOHME CORP., priority 2013, dated 2017).

Read-outs that look alike come from different tables or passages of the source.

Regarding `COCCCN1C(=O)c2c(O)c(=O)c(C(=O)NCc3ccc(F)cc3F)cn2CC12CCCOC2` (single isomer, unassigned) [Compound 86], the IC50 came to 177 nM under setting [1] and 9.3 nM under setting [2].
The corresponding values for `COCCCN1n2cc(C(=O)NCc3ccc(F)cc3F)c(=O)c(O)c2C(=O)N(C)C12CCOC2` (single isomer, unassigned) [Compound 158] are 168 nM and 1 nM.
Turning to `CN1C(=O)c2c(O)c(=O)c(C(=O)NCc3ccc(F)cc3F)cn2N(CC2CC2)C12CCOC2` (single isomer, unassigned) [Compound 151], the IC50 reads like this: under setting [3], 240 nM; under setting [4], 0.7 nM.
Take `CN1C(=O)c2c(O)c(=O)c(-c3nnc(Cc4ccc(F)cc4F)s3)cn2N(C)C12CCNC(=O)CC2` (stereo not drawn) [Compound 28]: the IC50 is, setting by setting: under setting [5], 122 nM; under setting [3], 679 nM; under setting [4], 53.5 nM.
On to `COCCN1C(=O)c2c(O)c(=O)c(C(=O)NCc3ccc(F)cc3F)cn2CC12CCCOC2` (single isomer, unassigned) [Compound 83], for which the IC50 runs as follows: under setting [3], 3050 nM; under setting [4], 7.8 nM.
On the same counts, the results for `COCCN1C(=O)c2c(O)c(=O)c(C(=O)NCc3ccc(F)cc3)cn2CC12CCOC2` (single isomer, unassigned) [Compound 51] are 196 nM and 4.8 nM.
Consider `CN1C(=O)c2c(O)c(=O)c(-c3nnc(Cc4ccc(F)cc4F)s3)cn2CC12CCNCC2` [Compound 93], for which the IC50 is 114 nM under setting [5] and 73.9 nM under setting [4].
Regarding `CCCN1C(=O)c2c(O)c(=O)c(C(=O)NCc3ccc(F)cc3F)cn2CC12CCOC2` (racemic) [Compound 67], the IC50 under setting [3] is 3600 nM and the IC50 under setting [4] came to 6.6 nM.
The corresponding values for `CCOCCN1C(=O)c2c(O)c(=O)c(C(=O)NCc3ccc(F)cc3F)cn2CC12CCOC2` (single isomer, unassigned) [Compound 77] are 96 nM and 3 nM.
On to `CCCN1C(=O)c2c(O)c(=O)c(-c3nnc(Cc4ccc(F)cc4F)s3)cn2N(C)C12CCN(C(=O)OCC)CC2` [Compound 7], for which the IC50 is, setting by setting: under setting [5], 58 nM; under setting [3], 148 nM; under setting [4], 29.9 nM.
With `CN1C(=O)c2c(O)c(=O)c(C(=O)NCc3ccc(F)c(Cl)c3F)cn2CC12CCOC2` (stereo not drawn) [Compound 55], the IC50 under setting [3] was 30 nM and the IC50 under setting [4] turned out to be 0.6 nM.
